In ChEMBL document CHEMBL6074620, “Discovery of a triphenylamine-based ligand that targets mitochondrial DNA G-quadruplexes and activates the cGAS-STING immunomodulatory pathway” (Eur J Med Chem, 2024) one finds Activity, IC50 and Kd data, which are given here for 6 molecules.

pIC50, pKd: −log10 of the molar value. Activity calls are given as the source filed them. The rule behind the calls is not given here.

In one data set the test system is Mus musculus. The data set is described as follows: Immunostimulatory activity in female BALB/c mouse implanted with mouse 4T1 cells assessed as increase in CD8+ T cells in spleen 2.5 mg/kg, iv by flow cytometry. The format is functional, organism-based.
Data set [1] can be described thus: Cytotoxicity against human MCF-10A assessed as cell growth inhibition incubated for 24 hrs by CCK-8 assay. The data set is classed as toxicity, cell-based. Particulars: MCF-10A cells. (Tetrazolium assays rely on reduction of a dye to a coloured formazan, in cell work by metabolically active cells.)
The test system of the next data set is 4T1. The data set is described as follows: Cytotoxicity against mouse 4T1 cells assessed as reduction in cell viability incubated for 24 hrs by CCK-8 assay. The data set is classed as functional, cell-based. Particulars: 4T1, 24 h.
For data set [2], the target named is Quadruplex DNA. The data set is described as follows: Binding affinity to 5-terminal mt6363 DNA (unknown origin) assessed as dissociation constant by TAMRA-labeled G4 quenching assay. The format is nucleic-acid assay.
Data set [3] has as its target Quadruplex DNA. The data set is described as follows: Binding affinity to 3-terminal mt6363 DNA (unknown origin) assessed as dissociation constant by TAMRA-labeled G4 quenching assay. The format is nucleic-acid assay.
In another data set the test system is MDA-MB-231. The data set is described as follows: Cytotoxicity against human MDA-MB-231 cells assessed as reduction in cell viability incubated for 24 hrs by CCK-8 assay. The format is functional, cell-based. Particulars: MDA-MB-231, 24 h.

For the molecule `COc1cccc2c1C(=O)c1c(O)c3c(c(O)c1C2=O)C[C@@](O)(C(=O)CO)C[C@@H]3O[C@H]1C[C@H](N)[C@H](O)[C@H](C)O1`, the result in the data set with Mus musculus was Active.

Take `C[n+]1c(/C=C/c2ccc(N(c3ccccc3)c3ccccc3)cc2)ccc2ccccc21`: the IC50 – broadly, the concentration that gives 50% inhibition – at 24 h in data set [1] amounted to 38 µM. In addition, the pIC50 – broadly, the negative decadic logarithm of the IC50, by convention in mol/L – was 5.02 with 4T1 and 5.47 in the data set with MDA-MB-231. Moreover, the figures for the pKd on Quadruplex DNA [2] and at Quadruplex DNA [3] were 5.26 and 5.30, respectively.

With `C[N+]1=C(/C=C/c2ccc(N(c3ccccc3)c3ccccc3)cc2)C(C)(C)c2ccccc21`, in data set [1], the half-maximal inhibitory concentration (IC50) at 24 h worked out at 5 µM. Moreover, the values for the pIC50 with 4T1 and with MDA-MB-231 were 5.32 and 5.59, respectively. Moreover, the pKd (usually the Kd on a negative log10 scale, so that one unit is a factor of ten) on Quadruplex DNA [2] was 5.14; on Quadruplex DNA [3], 5.20.

As to `COc1ccc(N(c2ccc(/C=C/c3ccc4ccccc4[n+]3C)cc2)c2ccc(OC)cc2)cc1`, the IC50 at 24 h in data set [1] is 39.4 µM. In addition, the values for the pIC50 in the data set on 4T1 and in the data set with MDA-MB-231 were 5.00 and 5.27, respectively. Further, the pKd on Quadruplex DNA [2] was 5.05; on Quadruplex DNA [3], 5.49.

For `COc1ccc(N(c2ccc(/C=C/C3=[N+](C)c4ccccc4C3(C)C)cc2)c2ccc(OC)cc2)cc1`, the IC50 at 24 h in data set [1] is 8.5 µM. Besides, the pIC50 with 4T1 was 5.46; with MDA-MB-231, 5.40. Besides, the pKd was 5.37 at Quadruplex DNA [2] and 5.68 at Quadruplex DNA [3].

`C[N+]1=C(/C=C/c2ccc(N(c3ccccc3)c3ccccc3)cc2)C(C)(C)c2c1ccc1ccccc21`: the IC50 at 24 h in data set [1] came out at 7 µM. The pIC50 with 4T1 was 5.37; in the data set on MDA-MB-231, 5.55. In addition, the pKd is 5.85 on Quadruplex DNA [2] and 5.96 on Quadruplex DNA [3].
